Paper PMC5657534 (Nature chemical biology, 2017)

Molecular target: ClbH (full-length) (Escherichia coli, UniProt Q0P7J8)
Test: ATP-[…]PPi exchange
Assay type: biochemical
Conditions: Mg2+, pH 8.3, room temperature, 1 mM amino acid

ClbH (full-length), sequence (Q0P7J8 1-1598): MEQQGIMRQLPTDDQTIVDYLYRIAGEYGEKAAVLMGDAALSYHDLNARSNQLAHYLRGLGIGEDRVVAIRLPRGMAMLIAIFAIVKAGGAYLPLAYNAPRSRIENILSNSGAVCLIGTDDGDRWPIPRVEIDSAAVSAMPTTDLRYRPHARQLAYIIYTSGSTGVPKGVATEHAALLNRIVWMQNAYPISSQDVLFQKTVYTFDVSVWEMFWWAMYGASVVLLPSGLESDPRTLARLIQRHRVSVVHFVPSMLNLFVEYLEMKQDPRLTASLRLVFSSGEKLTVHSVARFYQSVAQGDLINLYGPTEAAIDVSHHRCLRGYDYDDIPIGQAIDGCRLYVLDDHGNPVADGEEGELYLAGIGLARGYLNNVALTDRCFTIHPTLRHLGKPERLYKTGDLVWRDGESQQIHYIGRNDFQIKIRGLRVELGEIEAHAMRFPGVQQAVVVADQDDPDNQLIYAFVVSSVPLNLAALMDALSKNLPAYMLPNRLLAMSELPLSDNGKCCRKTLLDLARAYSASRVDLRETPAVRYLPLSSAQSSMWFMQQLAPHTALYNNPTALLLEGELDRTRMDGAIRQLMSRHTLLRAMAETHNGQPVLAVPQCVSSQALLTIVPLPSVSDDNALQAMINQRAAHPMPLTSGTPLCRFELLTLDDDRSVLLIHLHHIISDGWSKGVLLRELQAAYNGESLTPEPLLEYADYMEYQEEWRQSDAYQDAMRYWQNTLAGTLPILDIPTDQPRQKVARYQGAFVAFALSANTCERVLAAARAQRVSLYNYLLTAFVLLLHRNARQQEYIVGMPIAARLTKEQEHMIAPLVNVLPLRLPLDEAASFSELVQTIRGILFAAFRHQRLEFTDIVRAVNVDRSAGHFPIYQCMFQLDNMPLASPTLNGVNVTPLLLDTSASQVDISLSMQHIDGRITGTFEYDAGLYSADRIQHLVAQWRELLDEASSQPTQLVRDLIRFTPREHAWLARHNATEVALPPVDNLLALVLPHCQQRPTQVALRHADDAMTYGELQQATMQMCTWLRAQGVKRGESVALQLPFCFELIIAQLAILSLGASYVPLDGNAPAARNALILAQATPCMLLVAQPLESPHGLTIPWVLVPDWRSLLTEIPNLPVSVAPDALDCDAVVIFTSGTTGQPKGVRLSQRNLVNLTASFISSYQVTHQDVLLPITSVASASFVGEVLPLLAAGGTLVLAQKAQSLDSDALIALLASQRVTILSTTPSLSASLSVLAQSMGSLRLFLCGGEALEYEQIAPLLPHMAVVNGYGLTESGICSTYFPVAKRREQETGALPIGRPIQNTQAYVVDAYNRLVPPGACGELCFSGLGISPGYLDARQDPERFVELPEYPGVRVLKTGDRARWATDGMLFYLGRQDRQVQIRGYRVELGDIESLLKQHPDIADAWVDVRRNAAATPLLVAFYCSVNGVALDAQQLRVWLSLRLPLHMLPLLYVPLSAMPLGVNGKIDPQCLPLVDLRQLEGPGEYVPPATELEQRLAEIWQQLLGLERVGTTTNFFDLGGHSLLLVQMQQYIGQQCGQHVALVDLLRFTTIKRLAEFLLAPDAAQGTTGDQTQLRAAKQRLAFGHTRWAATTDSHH

SMILES: N[C@@H](CO)C(=O)O [L-Ser]
- ATP-[32P]PPi exchange: full-length ClbH activated L-Ser and SAM (Fig. 1b)
